The kinase profiling compilation of Christmann-Franck et al. (2016)

How the values were obtained:
Experiment in all cases: KINOMEscan competition binding
Conditions in all cases: compound 10.0 µM
[1] = biological target: MELK (human) (UniProt Q14680)
[2] = biological target: NEK9 (human) (UniProt Q8TD19)
[3] = biological target: STK39 (human) (UniProt Q9UEW8)
[4] = biological target: MAP4K5 (human) (UniProt Q9Y4K4)
[5] = biological target: CDC42BPA (human) (UniProt Q5VT25)
[6] = biological target: BRSK1 (human) (UniProt Q8TDC3)
[7] = biological target: CDK3 (human) (UniProt Q00526)
[8] = biological target: IRAK4 (human) (UniProt Q9NWZ3)
[9] = biological target: IKBKB (human) (UniProt O14920)
[10] = biological target: PRKCH (human) (UniProt P24723)
[11] = biological target: CASK (human) (UniProt O14936)
[12] = biological target: PLK3 (human) (UniProt Q9H4B4)
[13] = biological target: MARK2 (human) (UniProt Q7KZI7)
[14] = tested on: CPK1 (P.falciparum)
[15] = biological target: FER (human) (UniProt P16591)
[16] = biological target: PDPK1 (human) (UniProt O15530)
[17] = biological target: CDK18 (human) (UniProt Q07002)
[18] = biological target: AKT3 (human) (UniProt Q9Y243)
[19] = biological target: MKNK1 (human) (UniProt Q9BUB5)
[20] = biological target: MAP3K9 (human) (UniProt P80192)
[21] = biological target: PRKG1 (human) (UniProt Q13976)
[22] = biological target: PIK3CG (human) (UniProt P48736)
[23] = biological target: DYRK2 (human) (UniProt Q92630)
[24] = tested on: FLT3 (human), P36888 [N841I]
[25] = tested on: PIK3CA (human), P42336 [E545K]
[26] = biological target: ACVR1B (human) (UniProt P36896)
[27] = biological target: MAPK4 (human) (UniProt P31152)
[28] = biological target: CLK3 (human) (UniProt P49761)
[29] = tested on: EGFR (human), P00533 [A750P; 747-749 del]
[30] = biological target: PRKCI (human) (UniProt P41743)
[31] = biological target: PAK3 (human) (UniProt O75914)
[32] = biological target: STK25 (human) (UniProt O00506)
[33] = biological target: MAP4K4 (human) (UniProt O95819)
[34] = biological target: CDKL1 (human) (UniProt Q00532)
[35] = biological target: PRKACB (human) (UniProt P22694)
[36] = biological target: STK32B (human) (UniProt Q9NY57)
[37] = biological target: MAP3K10 (human) (UniProt Q02779)
[38] = biological target: DYRK1B (human) (UniProt Q9Y463)
[39] = tested on: KIT (human), P10721 [D816H]
[40] = biological target: SLK (human) (UniProt Q9H2G2)
[41] = biological target: NLK (human) (UniProt Q9UBE8)
Chain of NLK (human) (Q9UBE8 whole entry, looked up): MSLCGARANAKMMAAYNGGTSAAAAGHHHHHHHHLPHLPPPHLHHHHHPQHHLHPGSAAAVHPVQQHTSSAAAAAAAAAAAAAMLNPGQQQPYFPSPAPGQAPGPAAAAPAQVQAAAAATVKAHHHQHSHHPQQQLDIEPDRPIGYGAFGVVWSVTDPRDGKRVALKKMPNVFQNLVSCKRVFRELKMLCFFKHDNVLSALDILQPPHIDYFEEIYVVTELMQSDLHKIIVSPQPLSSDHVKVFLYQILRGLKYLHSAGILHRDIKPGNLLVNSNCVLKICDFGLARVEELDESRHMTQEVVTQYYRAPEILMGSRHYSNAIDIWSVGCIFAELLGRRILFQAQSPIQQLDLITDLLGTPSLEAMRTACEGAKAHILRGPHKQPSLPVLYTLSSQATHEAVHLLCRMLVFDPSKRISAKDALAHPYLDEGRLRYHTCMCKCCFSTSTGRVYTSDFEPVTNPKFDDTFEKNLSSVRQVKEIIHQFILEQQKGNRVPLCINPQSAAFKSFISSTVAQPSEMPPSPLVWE

Chain of MAP3K10 (human) (Q02779 whole entry, looked up): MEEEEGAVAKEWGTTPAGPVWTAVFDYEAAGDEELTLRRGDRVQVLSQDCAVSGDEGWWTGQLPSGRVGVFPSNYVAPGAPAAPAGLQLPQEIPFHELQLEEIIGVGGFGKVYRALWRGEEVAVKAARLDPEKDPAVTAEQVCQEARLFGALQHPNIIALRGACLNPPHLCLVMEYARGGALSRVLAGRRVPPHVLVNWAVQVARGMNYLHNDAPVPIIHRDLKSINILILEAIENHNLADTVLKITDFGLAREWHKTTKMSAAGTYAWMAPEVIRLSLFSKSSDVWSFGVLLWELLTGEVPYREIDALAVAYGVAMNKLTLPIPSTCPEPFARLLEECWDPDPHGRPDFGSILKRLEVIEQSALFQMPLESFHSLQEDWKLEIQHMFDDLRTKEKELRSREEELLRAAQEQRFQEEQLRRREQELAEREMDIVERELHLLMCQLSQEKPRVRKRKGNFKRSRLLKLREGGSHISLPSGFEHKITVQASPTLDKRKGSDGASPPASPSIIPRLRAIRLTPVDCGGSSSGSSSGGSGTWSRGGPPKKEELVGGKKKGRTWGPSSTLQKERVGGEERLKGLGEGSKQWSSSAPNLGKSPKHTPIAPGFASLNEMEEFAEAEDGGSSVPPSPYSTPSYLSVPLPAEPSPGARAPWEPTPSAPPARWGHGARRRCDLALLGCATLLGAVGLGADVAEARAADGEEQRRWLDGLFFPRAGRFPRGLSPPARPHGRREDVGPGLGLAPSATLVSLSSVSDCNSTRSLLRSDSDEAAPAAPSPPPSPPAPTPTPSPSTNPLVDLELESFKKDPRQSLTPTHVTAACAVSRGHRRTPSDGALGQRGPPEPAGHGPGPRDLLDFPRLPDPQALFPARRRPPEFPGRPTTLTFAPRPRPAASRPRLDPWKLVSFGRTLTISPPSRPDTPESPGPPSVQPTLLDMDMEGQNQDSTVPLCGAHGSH
Chain of MAP3K9 (human) (P80192 whole entry, looked up): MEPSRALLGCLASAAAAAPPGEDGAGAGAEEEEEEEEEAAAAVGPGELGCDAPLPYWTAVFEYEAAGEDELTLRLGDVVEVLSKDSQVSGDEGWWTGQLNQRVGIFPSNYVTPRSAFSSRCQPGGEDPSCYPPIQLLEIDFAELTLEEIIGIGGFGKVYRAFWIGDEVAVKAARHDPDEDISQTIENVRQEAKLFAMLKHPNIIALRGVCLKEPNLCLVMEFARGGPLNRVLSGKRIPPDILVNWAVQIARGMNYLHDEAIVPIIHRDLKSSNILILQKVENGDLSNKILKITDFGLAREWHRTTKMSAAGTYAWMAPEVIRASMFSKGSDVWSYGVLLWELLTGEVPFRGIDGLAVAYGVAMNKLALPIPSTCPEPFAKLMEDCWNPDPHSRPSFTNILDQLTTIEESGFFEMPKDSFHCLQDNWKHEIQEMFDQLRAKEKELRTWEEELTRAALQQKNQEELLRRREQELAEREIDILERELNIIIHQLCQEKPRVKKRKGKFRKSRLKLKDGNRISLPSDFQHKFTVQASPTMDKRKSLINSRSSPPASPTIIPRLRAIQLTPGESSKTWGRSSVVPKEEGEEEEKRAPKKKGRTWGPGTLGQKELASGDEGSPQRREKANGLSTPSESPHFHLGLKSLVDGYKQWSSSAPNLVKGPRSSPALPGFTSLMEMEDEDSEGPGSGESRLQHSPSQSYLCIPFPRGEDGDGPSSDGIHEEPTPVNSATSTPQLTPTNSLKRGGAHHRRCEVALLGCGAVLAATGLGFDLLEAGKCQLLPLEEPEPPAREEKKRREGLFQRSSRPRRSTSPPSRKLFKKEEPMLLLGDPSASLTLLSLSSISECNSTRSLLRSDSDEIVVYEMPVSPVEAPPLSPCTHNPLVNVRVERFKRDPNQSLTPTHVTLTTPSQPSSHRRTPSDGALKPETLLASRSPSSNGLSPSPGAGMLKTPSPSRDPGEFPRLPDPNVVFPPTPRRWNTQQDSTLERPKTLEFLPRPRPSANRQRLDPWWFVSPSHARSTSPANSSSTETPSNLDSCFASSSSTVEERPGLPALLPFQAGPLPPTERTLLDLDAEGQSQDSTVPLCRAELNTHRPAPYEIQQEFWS
Chain of MKNK1 (human) (Q9BUB5 whole entry, looked up): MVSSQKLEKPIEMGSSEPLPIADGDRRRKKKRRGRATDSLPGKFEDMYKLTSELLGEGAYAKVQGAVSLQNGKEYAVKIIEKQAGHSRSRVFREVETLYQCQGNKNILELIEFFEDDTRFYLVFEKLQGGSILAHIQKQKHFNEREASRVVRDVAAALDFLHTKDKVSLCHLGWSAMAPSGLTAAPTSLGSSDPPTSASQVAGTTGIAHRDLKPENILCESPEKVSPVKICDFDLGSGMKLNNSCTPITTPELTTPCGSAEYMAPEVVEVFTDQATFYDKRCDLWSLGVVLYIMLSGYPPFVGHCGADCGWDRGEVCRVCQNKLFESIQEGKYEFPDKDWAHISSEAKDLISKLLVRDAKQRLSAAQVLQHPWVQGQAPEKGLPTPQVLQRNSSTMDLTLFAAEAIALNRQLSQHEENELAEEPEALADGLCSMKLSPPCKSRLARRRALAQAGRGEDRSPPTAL
Chain of SLK (human) (Q9H2G2 whole entry, looked up): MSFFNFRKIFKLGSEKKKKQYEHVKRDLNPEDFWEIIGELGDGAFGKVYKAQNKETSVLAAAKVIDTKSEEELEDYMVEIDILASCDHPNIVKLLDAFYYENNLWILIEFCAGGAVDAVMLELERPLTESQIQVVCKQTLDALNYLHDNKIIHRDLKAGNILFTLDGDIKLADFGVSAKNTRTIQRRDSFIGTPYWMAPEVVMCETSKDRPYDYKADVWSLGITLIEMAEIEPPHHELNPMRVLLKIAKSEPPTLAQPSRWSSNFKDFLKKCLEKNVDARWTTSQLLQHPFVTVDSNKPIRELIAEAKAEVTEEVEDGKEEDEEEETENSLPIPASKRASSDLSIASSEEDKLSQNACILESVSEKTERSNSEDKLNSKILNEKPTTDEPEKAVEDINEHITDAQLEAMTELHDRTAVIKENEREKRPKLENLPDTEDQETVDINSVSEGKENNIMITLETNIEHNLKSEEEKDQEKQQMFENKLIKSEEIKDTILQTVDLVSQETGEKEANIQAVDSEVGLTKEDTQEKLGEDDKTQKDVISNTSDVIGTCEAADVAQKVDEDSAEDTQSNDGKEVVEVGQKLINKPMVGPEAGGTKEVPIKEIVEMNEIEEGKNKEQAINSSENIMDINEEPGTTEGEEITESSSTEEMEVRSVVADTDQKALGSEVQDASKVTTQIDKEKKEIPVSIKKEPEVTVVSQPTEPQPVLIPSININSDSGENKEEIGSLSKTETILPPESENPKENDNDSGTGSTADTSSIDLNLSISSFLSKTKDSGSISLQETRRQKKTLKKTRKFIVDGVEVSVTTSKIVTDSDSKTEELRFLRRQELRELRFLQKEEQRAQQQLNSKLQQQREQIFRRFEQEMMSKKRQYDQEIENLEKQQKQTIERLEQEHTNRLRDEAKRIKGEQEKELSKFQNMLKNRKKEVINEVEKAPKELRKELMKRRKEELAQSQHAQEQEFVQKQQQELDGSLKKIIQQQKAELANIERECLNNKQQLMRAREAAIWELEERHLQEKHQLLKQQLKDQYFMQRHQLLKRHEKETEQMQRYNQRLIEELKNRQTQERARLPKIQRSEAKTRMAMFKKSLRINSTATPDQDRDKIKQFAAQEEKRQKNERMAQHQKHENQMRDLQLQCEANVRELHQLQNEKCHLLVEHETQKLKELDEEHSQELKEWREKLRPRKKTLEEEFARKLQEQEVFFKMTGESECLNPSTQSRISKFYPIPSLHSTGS
Chain of PRKG1 (human) (Q13976 whole entry, looked up): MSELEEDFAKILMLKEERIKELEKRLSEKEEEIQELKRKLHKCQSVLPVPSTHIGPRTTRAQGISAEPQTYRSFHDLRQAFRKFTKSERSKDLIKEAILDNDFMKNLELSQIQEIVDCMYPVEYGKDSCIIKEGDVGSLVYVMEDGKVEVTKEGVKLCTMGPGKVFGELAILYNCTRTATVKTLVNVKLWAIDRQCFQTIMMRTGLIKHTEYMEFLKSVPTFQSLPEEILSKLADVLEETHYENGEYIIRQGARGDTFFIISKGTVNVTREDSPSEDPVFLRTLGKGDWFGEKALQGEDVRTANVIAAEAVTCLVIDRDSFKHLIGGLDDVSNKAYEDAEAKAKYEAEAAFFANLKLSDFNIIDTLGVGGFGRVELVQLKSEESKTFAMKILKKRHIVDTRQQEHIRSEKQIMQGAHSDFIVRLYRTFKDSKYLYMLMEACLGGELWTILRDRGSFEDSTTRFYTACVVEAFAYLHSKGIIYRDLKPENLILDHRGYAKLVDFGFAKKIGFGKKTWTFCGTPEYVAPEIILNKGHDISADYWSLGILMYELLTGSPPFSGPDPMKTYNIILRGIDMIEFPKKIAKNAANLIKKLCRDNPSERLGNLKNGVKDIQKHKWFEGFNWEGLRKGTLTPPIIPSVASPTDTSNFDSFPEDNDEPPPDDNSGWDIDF

## COc1cc(C(=O)N2CCC(N3CCN(C)CC3)CC2)ccc1Nc1ncc2c(n1)N(C)c1ccccc1C(=O)N2C
[1]
  kinase still bound, per cent of control: 100%
[2]
  kinase still bound, per cent of control: 100%
[3]
  residual activity: 39%
[4]
  kinase still bound, per cent of control: 100%
[5]
  kinase still bound, per cent of control: 100%
[6]
  kinase still bound, per cent of control: 81%
[7]
  residual activity: 100%
[8]
  kinase still bound, per cent of control: 83%
[9]
  kinase still bound, per cent of control: 89%
[10]
  kinase still bound, per cent of control: 100%
[11]
  kinase still bound, per cent of control: 85%
[12]
  kinase still bound, per cent of control: 51%
[13]
  kinase still bound, per cent of control: 100%
[14]
  kinase still bound, per cent of control: 100%
[15]
  kinase still bound, per cent of control: 51%
[16]
  kinase still bound, per cent of control: 100%
[17]
  residual activity: 100%
[18]
  kinase still bound, per cent of control: 100%
[19]
  kinase still bound, per cent of control: 50%
[20]
  kinase still bound, per cent of control: 93%
[21]
  kinase still bound, per cent of control: 98%
[22]
  kinase still bound, per cent of control: 15%
[23]
  kinase still bound, per cent of control: 76%
[24]
  kinase still bound, per cent of control: 73%
[25]
  kinase still bound, per cent of control: 100%
[26]
  kinase still bound, per cent of control: 100%
[27]
  kinase still bound, per cent of control: 100%
[28]
  kinase still bound, per cent of control: 95%
[29]
  kinase still bound, per cent of control: 78%
[30]
  kinase still bound, per cent of control: 100%
[31]
  kinase still bound, per cent of control: 83%
[32]
  kinase still bound, per cent of control: 68%
[33]
  kinase still bound, per cent of control: 85%
[34]
  residual activity: 78%
[35]
  residual activity: 100%
[36]
  kinase still bound, per cent of control: 100%
[37]
  kinase still bound, per cent of control: 100%
[38]
  kinase still bound, per cent of control: 94%
[39]
  kinase still bound, per cent of control: 100%
[40]
  kinase still bound, per cent of control: 100%
[41]
  kinase still bound, per cent of control: 50%
